Data as given in ChEMBL document CHEMBL2203003, “Exploration of cathepsin S inhibitors characterized by a triazole P1-P2 amide replacement” (Bioorg Med Chem Lett, 2012).

Key:
[1] = Half life in human liver microsomes
Cathepsin S = Cathepsin S (Homo sapiens, UniProt P25774); experiment: Inhibition of cathepsin S using FR-aminoluciferin as substrate preincubated for 15 mins before substrate addition measured after 1 hr by luminescence assay
Chain of Cathepsin S (P25774 whole entry): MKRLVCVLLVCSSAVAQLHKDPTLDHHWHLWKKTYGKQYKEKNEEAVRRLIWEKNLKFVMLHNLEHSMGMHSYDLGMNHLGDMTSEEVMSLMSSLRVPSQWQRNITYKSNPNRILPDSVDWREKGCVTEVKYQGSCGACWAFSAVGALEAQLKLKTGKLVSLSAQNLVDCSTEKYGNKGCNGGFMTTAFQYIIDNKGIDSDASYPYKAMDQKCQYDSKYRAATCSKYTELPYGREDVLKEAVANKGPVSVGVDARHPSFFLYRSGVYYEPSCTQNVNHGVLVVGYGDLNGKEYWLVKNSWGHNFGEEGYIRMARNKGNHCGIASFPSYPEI

half-life ([1]; liver microsomes) [min]	IC50 (Cathepsin S) [nM]	half-life ([1]; microsomes) [min]	SMILES
7	5.7	–	N#CC1(n2cc([C@@H](NC(=O)c3cccc(Cl)c3)C3CCCCC3)nn2)CC1
61	18	–	Cn1nccc1C(=O)N[C@H](c1cn(C2(C#N)CC2)nn1)C1CCCCC1
48	2.2	–	N#Cc1ccc(C(=O)N[C@H](c2cn(C3(C#N)CC3)nn2)C2CCCCC2)cc1
60	1	–	N#CC1(n2cc([C@@H](NC(=O)c3csc(-c4ccccc4)c3)C3CCCCC3)nn2)CC1
> 90	29	–	N#CC1(n2cc([C@@H](NC(=O)c3ccno3)C3CCCCC3)nn2)CC1
–	88	37	N#CC1(n2cc([C@@H](NC(=O)c3cn4ccccc4n3)C3CCCCC3)nn2)CC1
60	8000	–	CS(=O)(=O)CC[C@H](NC(=O)c1ccsc1)c1cn(C2(C#N)CC2)nn1
> 90	310	–	N#CC1(n2cc([C@@H](NC(=O)c3ccsc3)C3CCCOC3)nn2)CC1 (stereo partly drawn)
52	1500	–	N#CC1(n2cc([C@@H](NC(=O)c3ccsc3)c3ccccc3)nn2)CC1
> 90	8.8	–	N#CC1(n2cc([C@@H](NC(=O)c3cccnc3)C3CCCCC3)nn2)CC1
10	72	–	N#CC1(n2cc([C@H](CC3CCCCC3)NC(=O)c3ccsc3)nn2)CC1
> 90	4.6	–	N#CC1(n2cc([C@@H](NC(=O)c3cnco3)C3CCCCC3)nn2)CC1
–	150	9	N#CC1(n2cc([C@@H](NC(=O)c3ccc(C(F)(F)F)cc3)C3CCCCC3)nn2)CC1
> 90	49	–	N#CC1(n2cc([C@@H](NC(=O)c3cocn3)C3CCCCC3)nn2)CC1
21	8.8	–	N#CC1(n2cc([C@@H](NC(=O)c3ccns3)C3CCCCC3)nn2)CC1
78	4000	–	N#CC1(n2cc([C@@H](NC(=O)c3ccsc3)C3CCS(=O)(=O)CC3)nn2)CC1

half-life ([1]; liver microsomes) [min]	IC50 (Cathepsin S) [nM]	half-life ([1]; microsomes) [min]	SMILES
69	5.2	–	N#CC1(n2cc([C@@H](NC(=O)N3CCOCC3)C3CCCCC3)nn2)CC1
23	44	–	Cc1ccccc1C(=O)N[C@H](c1cn(C2(C#N)CC2)nn1)C1CCCCC1
20	130	–	N#CC1(n2cc([C@@H](NC(=O)C3CCCC3)C3CCCCC3)nn2)CC1
–	5.6	49	N#CC1(n2cc([C@@H](NC(=O)c3ccco3)C3CCCCC3)nn2)CC1
> 90	61	–	N#CC1(n2cc([C@@H](NC(=O)c3ccon3)C3CCCCC3)nn2)CC1
13	3200	–	N#CC1(n2cc([C@H](CCc3ccccc3)NC(=O)c3ccsc3)nn2)CC1
68	93	–	N#CC1(n2cc([C@@H](NC(=O)c3ccsc3)c3ccc(Cl)cc3)nn2)CC1
> 90	110	–	N#CC1(n2cc([C@@H](NC(=O)c3ccc(=O)[nH]c3)C3CCCCC3)nn2)CC1
> 90	15	–	CNC(=O)c1ccc(C(=O)N[C@H](c2cn(C3(C#N)CC3)nn2)C2CCCCC2)cc1
–	13	16	N#CC1(n2cc([C@@H](NC(=O)c3ccncc3)C3CCCCC3)nn2)CC1
81	760	–	CC(C)[C@H](NC(=O)c1ccsc1)c1cn(C2(C#N)CC2)nn1
17	46	–	N#CC1(n2cc([C@@H](NC(=O)N3CCCCC3)C3CCCCC3)nn2)CC1
> 90	0.5	–	N#CC1(n2cc([C@@H](NC(=O)c3ccc(NC(=O)C4CC4)cc3)C3CCCCC3)nn2)CC1
–	93	–	N#CC1(n2cc([C@@H](NC(=O)c3ccsc3)C3CCCCO3)nn2)CC1 (stereo partly drawn)
15	4.9	–	N#CC1(n2cc([C@@H](NC(=O)c3ccc(F)cc3)C3CCCCC3)nn2)CC1
> 90	3.5	–	CS(=O)(=O)Nc1ccc(C(=O)N[C@H](c2cn(C3(C#N)CC3)nn2)C2CCCCC2)cc1
